Data reported in publication PMC6255327, “Design of Antimicrobially Active Small Amphiphilic Peptide Dendrimers” (Molecules, 2009).
Structures can show the parent of a compound that is named as a salt.

How the values were obtained:
P. aeruginosa ATCC 27853 = format: cell-based, Pseudomonas aeruginosa; conditions: ATCC 27853, 24 h
Experimental: (§1) Bacteria. Staphylococcus aureus ATCC 25923, Pseudomonas aeruginosa ATCC 27853, Escherichia coli ATCC 25922 and Staphylococcus aureus ATCC 43300 were cultivated on tryptone - soy agar (TSA; Oxoid). Klebsiella pneumoniaeATCC 13882, Bordetella bronchiseptica ATCC 4617, Acinetobacter baumannii ATCC 19606 were cultivated onto nutrient agar (Difco). Escherichia coli ATCC BAA-198 was cultivated on TSA with ceftazidime (10 µg/mL or 15.7 μM; Sigma). All strains were incubated during 24 hrs at 37 °C.
(§2) Medium. Mueller – Hinton Broth (Oxoid) was supplemented with cations: 12.5 mg Mg ^++/L and25 mg Ca^++/L. The pH of the medium after sterilization is between 7.2 and 7.4 [cation–adjusted Mueller – Hinton Broth” (CAMHB)].
(§3) Reference method. Broth microdilution susceptibility test was performed as described in […] reference method M7-A7 (2). A series of the twofold dendrimers dilutions in DMSO and twofold polymyxin B and penicillin G dilutions in CAMHB were diluted […] with CAMHB. Aliquots (95 µL) were dispensed into microdilution sterile plates (Mar-Four). Then, bacteria inoculum (5 µL) containing 5 × 10^4 CFU/mL were added. The final concentration of dendrimers ranged from 128 to 2 µg/mL [or 105 to 1.6 μM for an average molecular mass for 7 series (1213) and 61 to 0.9 μM for an average molecular mass for 10 series(2,103)], polymyxin B and penicillin G from 8 – 0.15 µg /mL (or 5.8 to 0.1 μM and 21.5 to 0.4 μM, respectively for polymyxin B and penicillin G), all in twofold dilution steps. The plates were incubated at 35 °C and read after 18 or 24 hours depending on bacterial strain. MICs (Minimal Inhibitory Concentration) was defined as the lowest drug concentration that reduced growth by 100%.

C. krusei ATCC 6258 = experiment: microbe, parasite or virus in culture; format: cell-based, Candida krusei; conditions: ATCC 6258, 48 h, pH 7; read-out: Minimal inhibitory concentration (MIC)
Experimental: (§4) Yeasts: Candida albicans ATCC 90028, Candida parapsilosis ATCC 22019 and Candida krusei ATCC 6258 were cultivated onto Sabouraud dextrose agar (Difco) during 24 hrs at 35 °C.
(§5) Medium: RPMI – 1640 (Sigma) supplemented with 0.2% (wt/vol) glucose, 0.3 g/L L-glutamine, 0.0053 g/L phenol red, buffered with morpholinopropanesulfonic acid (MOPS; Sigma) at a final concentration of 0.165 M and adjusted to pH 7.0 was prepared.
(§6) Reference Method: The broth microdilution susceptibility test was performed as described in Clinical and Laboratory Standards Institute (CLSI) reference method M27 – A2 (1). A series of the twofold dendrimers and amphotericin B dilutions in DMSO were diluted 1:49 with RPMI.

E.coli ATCC 25922 = format: cell-based, Escherichia coli; conditions: ATCC 25922, 24 h
Experimental: as §1, §2, §3

E. coli ATCC BAA-198 = format: cell-based, Escherichia coli; conditions: ATCC BAA-198, 24 h
Experimental: as §1, §2, §3

K. pneumoniae ATCC 13882 = format: cell-based, Klebsiella pneumoniae; conditions: ATCC 13882, 24 h
Experimental: as §1, §2, §3

human red blood cells = experiment: Hemolysis assay; format: cell-based; conditions: at a concentration of 400 μM, 1% hematocrit in PBS pH 7.4, 30 min at 23 °C, absorbance at 540 nm
Experimental: Dendrimer induced hemolysis was observed as previously reported. Briefly, serum free human red blood cells obtained from the Institute of Hematology and Transfusion Medicine in Warsaw, were suspended in phosphate buffered saline (PBS, pH 7.4). Prepared suspension of 1% hematocrit was incubated with serial concentration of dendrimers for 30 min at 23 °C. After centrifugation (1,000 rpm, 5 min) the absorbance of supernatant was measured at 540 nm (Jasco 630, Japan). A value of 100% hemolysis was determined by incubation of erythrocytes with double-distilled water (30 min at 23^o). In a control experiment, cells were incubated in buffer without peptide and absorbance at 540 nm value was used as a blank.
A - absorbance of the samples incubated with dendrimers; Ab – absorbance of the blank samples; A100% - absorbance of the reference; Ac - absorbance of red blood cells in PBS, hematocrit 1%.

[1] = system: B. bronchiseptica ATCC 4617; format: cell-based, Bordetella bronchiseptica; conditions: ATCC 4617, 24 h
Experimental: as §1, §2, §3

S. aureus ATCC 25923 = experiment: microbe, parasite or virus in culture; format: cell-based, Staphylococcus aureus; conditions: ATCC 25923, 24 h, pH 7.2; read-out: Minimal inhibitory concentration (MIC)
Experimental: as §1, §2, §3

A. baumani ATCC 19606 = format: cell-based, Acinetobacter baumannii; conditions: ATCC 19606, 24 h
Experimental: as §1, §2, §3

[2] = system: C. parapsilosis ATCC 22019; format: cell-based, Candida parapsilosis; conditions: ATCC 22019, 48 h, pH 7
Experimental: as §4, §5, §6

S. aureus ATCC 43300 = format: cell-based, Staphylococcus aureus; conditions: ATCC 43300, 24 h
Experimental: as §1, §2, §3

C. albicans ATCC 90028 = format: cell-based, Candida albicans; conditions: ATCC 90028, 48 h, pH 7
Experimental: as §4, §5, §6

| SMILES | Minimal inhibitory concentration (MIC) (P. aeruginosa ATCC 27853) [µM] | MIC (C. krusei ATCC 6258) [µM] | Minimal inhibitory concentration (MIC) (E.coli ATCC 25922) [µM] | Minimal inhibitory concentration (MIC) (E. coli ATCC BAA-198) [µM] | Minimal inhibitory concentration (MIC) (K. pneumoniae ATCC 13882) [µM] | toxicity (hemolysis) (human red blood cells) [%] | Minimal inhibitory concentration (MIC) [1] [µM] | MIC (S. aureus ATCC 25923) [µM] | Minimal inhibitory concentration (MIC) (A. baumani ATCC 19606) [µM] | Minimal inhibitory concentration (MIC) [2] [µM] | Minimal inhibitory concentration (MIC) (S. aureus ATCC 43300) [µM] | Minimal inhibitory concentration (MIC) (C. albicans ATCC 90028) [µM] |
| --- | --- | --- | --- | --- | --- | --- | --- | --- | --- | --- | --- | --- |
| NCCCC[C@H](NC(=O)OCc1ccccc1Cl)C(=O)NCCCN[C@@H](CCCN(CCCNC(=O)[C@H](CCCCN)NC(=O)OCc1ccccc1Cl)CCCNC(=O)[C@H](CCCCN)NC(=O)OCc1ccccc1Cl)C(=O)NCc1ccccc1 [Compound 7g, N,N,N’-tris[(N^α-2-chlorobenzyloxycarbonyl)-L-lysil-3-aminopropyl]-L-ornithine benzylamide penta-hydrochloride] | 21.8 | 5.4 | 21.8 | 10.9 | 87 | 32 | 2.7 | 10.9 | 5.4 | 5.4 | 10.9 | 10.9 |
| NCCCC[C@H](NC(=O)OCc1ccccc1Cl)C(=O)N[C@@H](Cc1ccccc1)C(=O)NCCCN(CCCNC(=O)[C@H](Cc1ccccc1)NC(=O)[C@H](CCCCN)NC(=O)OCc1ccccc1Cl)CCC[C@@H](CO)N(CCCNC(=O)[C@H](Cc1ccccc1)NC(=O)[C@H](CCCCN)NC(=O)OCc1ccccc1Cl)CCCNC(=O)[C@H](Cc1ccccc1)NC(=O)[C@H](CCCCN)NC(=O)OCc1ccccc1Cl [Compound 10c, N,N',N,N’-tetrakis[(N^α-2-chlorobenzyloxycarbonyl)-L-lysil-L-phenylalanyl-3-aminopropyl]-L-α,δ-diaminopentanol hexahydrochloride] | 54 | 27.3 | 27.3 | 13.6 | 54 | – | 6.8 | 27.2 | 27.3 | 54 | 13.6 | 54 |
| NCCCC[C@H](NC(=O)OCc1ccccc1Cl)C(=O)N[C@@H](Cc1ccccc1)C(=O)NCCCN(CCCC[C@@H](CO)N(CCCNC(=O)[C@H](Cc1ccccc1)NC(=O)[C@H](CCCCN)NC(=O)OCc1ccccc1Cl)CCCNC(=O)[C@H](Cc1ccccc1)NC(=O)[C@H](CCCCN)NC(=O)OCc1ccccc1Cl)CCCNC(=O)[C@H](Cc1ccccc1)NC(=O)[C@H](CCCCN)NC(=O)OCc1ccccc1Cl [Compound 10d, N,N',N,N’-tetrakis[(N^α-2-chlorobenzyloxycarbonyl)-L-lysil-L-phenylalanyl-3-aminopropyl]-L-α,ε-diaminohexanol hexahydrochloride] | 14 | 3.4 | 6.8 | 3.4 | >54 | – | 1.7 | 3.4 | 3.4 | 3.4 | 1.7 | 6.8 |
